From patent publication US4036984A, “Soil fungi inhibiting agent” (Nissan Chemical Industries, Ltd., priority 1974, dated 1977)

Legend:
[1] = system: Fusarium oxysporum f. cucumerinum; assay: Test 6: control of Fusarium wilt of cucumber by spraying stalks and leaves; assay type: in vivo; details: stalks and leaves sprayed with 2000 ppm, third week of transplanting
Protocol: Test of effect of fungicide on control of Fusarium wilt of cucumber, by spraying stalks and leaves with compound.
Fusarium oxysporum f. cucumerinum which had been cultivated for 1 month at 25° C. on soil-bran medium was air-dried overnight and then sifted through a 3mm-mesh sieve.
Next, 1500 g of sterilized diluvial soil (containing compost) was placed in a Wagner pot of 1/5000a, over which the soil prepared above was spread. Cucumber seedlings of one-leaf stage (variety: "Shimoshiraznjibai") which had been separately grown in styrol cups in a greenhouse were transplanted into said Wagner pot. Each of said cucumber seedlings was singly grown in a styrol cup with 200 g of soil. Seven days before it was transplanted, it was sprayed with a 2000 ppm solution of each compound until the stalks and leaves were completely wet.
Just after transplanting and at the end of each week after transplanting, the seedling was sprinkled until completely wet with a 2000 ppm solution of the compound. All the pots were kept in the greenhouse. The test was carried out on lots of three pots each with each pot holding four seedlings.
In the third week of transplanting all the seedlings were checked for the browning of vascular and in the same way as in Test 1.

[2] = system: Fusarium oxysporum f. cucumerinum; assay: Fungicidal test by agar dilution method (colony diameter); assay type: cell-based; details: for growth / inhibition of colony compared with the control: 250-1000 ppm; for diameter of the colony: 4 days, 25° C., PSA medium
Protocol: Reference -- Fungicidal Test by Agar Dilution Method
100 mg of the invented compound was taken in a 30 ml conical flask, to which a drop of 1:1 mixture of Solpol 2680 (surface-active agent produced by Toho Kagaku) and xylene (about 25 mg), and 1 ml of acetone were added to dissolve therein. On the other hand, 9 ml of sterilized water separately was further added to emulsify, thereby yielding an emulsion of 10,000 ppm concentration. From this emulsion an emulsion of 5,000 ppm and one of 2,500 ppm were prepared through two times dilution.
In a 100 ml conical flask, 3 ml portion each of these emulsions was taken; 27 ml of potato-sucrose-agar (PSA) medium, at 50°-60° C. was added and uniformly blended. Ten ml of the obtained mixture was poured and hardened on a 10 cm-diameter petri dish.
Meanwhile, a colony of Fusarium oxysporum f. cucumerinum separately cultivated on potato-sucrose-agar (PSA) medium was stamped out by a 4mm-diameter cork-borer and inoculated on the above-mentioned mixed medium. After 4 days of cultivation in a chamber of 25° C., the diameter of the colony was measured, the results being summarized in Table 2. A case of the colony not having grown is indicated by the sign (-).

[3] = system: Fusarium oxysporum f. cucumerinum; assay: Test 1: control of Fusarium wilt of cucumber (powder, pot test); assay type: in vivo; details: soil treatment 500 mg (5% powder) and additional irrigation 500 ppm, fourth week of transplanting
Protocol: Test of effect of fungicide on control of Fusarium wilt of cucumber (in case of using powder) Fusarium oxysporum f. cucumerinum which had been cultivated for 1 month at 25° C. on soil-bran medium was air-dried overnight and sifted through a 3mm-mesh sieve. 10g of said culture soil was blended with 600g of sterilized diluvial soil. To 200g of this blended soil were added 1200g of sterilized diluvial soil (containing 2.65 weight % of compost) and 1000mg or 500mg of 5% powder of the invented compound; and these were uniformly mixed in a vat. Next, 1500g of sterilized diluvial soil (containing compost) was placed in a wagner pot of 1/5000 are over which was spread the soil prepared above. Cucumber seedlings of one-leaf stage (variety: "Shimoshirazujibai") which had been cultivated separately in styrol cups in a greenhouse were transplanted into said wagner pot. Each of said cucumber seedlings was singly planted in 200g of the soil placed in said styrol cup and three days before its transplanting, 20 ml of an emulsion of each compound in 300 ppm concentration was irrigated over the soil. In the case of a pot whose soil had been treated with 1000 mg of the compound (5% powder), 14 days after transplanting, 50 ml of an emulsion of the compound in 1000 ppm concentration was additionally irrigated (Test I) and in the case of a pot whose soil had been treated with 500mg of the compound (5% powder), 50 ml of an emulsion of the compound in 500 ppm concentration was additionally irrigated (Test II). The pots were all kept in a greenhouse, and the test was carried out on lots each containing three pots, each pot holding four seedlings.
Every 2 days the withered seedlings were counted and in the fourth week of transplanting, the browning degree of vascular in each seedling was measured; and the effectiveness rating was determined as follows; [formula] (Note)* Fusarium lot is a treated lot containing only Fusarium oxysporum f. cucumerinum.
Sick score is obtained as follows:
Sick score = 3 × a + 2 × b + 1 × c + 0.5 × d + 0 […]
a -- number of withered seedlings b -- number of seedlings in which the browning of vascular has reached the cotyledon part c -- number of seedlings in which the browning of vascular is short of the cotyledon part d -- number of seedlings in which only brown spots have been recognized e -- number of perfectly sound seedlings a + b + c + d + e = 12

[4] = system: Fusarium oxysporum f. cucumerinum; assay: Test 2: control of Fusarium wilt of cucumber (emulsion, pot test); assay type: in vivo; details: emulsion irrigated 300 ppm, then 1000 ppm twice, third week of transplanting
Protocol: Test of effect of fungicide on control of Fusarium wilt of cucumber (in case of using emulsion).
Fusarium oxysporum f. cucumerinum which had been cultivated for 1 month at 25° C. on soil-bran medium was air-dried overnight and then sifted through a 3 mm-mesh sieve. 15g of said culture soil and 600g of sterilized diluvial soil were blended together.
Next, 1500g of sterilized diluvial soil (containing compost) was placed in a Wagner pot of 1/5000 are, over which the soil prepared above was spread. Cucumber seedlings of one-leaf stage (variety: "Shimoshirazujibai") which had been separately cultivated in styrol cups in a greenhouse were transplanted into said Wagner pot. Each of said cucumber seedlings was singly grown in a styrol cup with 200g of soil. Seven days before it was transplanted, 20 ml of an emulsion of each compound in 300 ppm was irrigated over the soil. Just after transplanting and two weeks after transplanting 50 ml of an emulsion of the compound in 1000 ppm was additionally irrigated. All pots were kept in the greenhouse, the test being carried out on lots each containing three pots and each pot holding four seedlings.
In the third week of transplanting all the seedlings were checked for the browning degree of vascular and in the same way as in Test 1, the effectiveness rating and the sick score were determined.

[5] = in vivo; cited from earlier work
rats = details: cited from earlier work
[6] = system: pests like fleas, mosquitoes etc.; details: cited from earlier work
genus Bacillus = details: 2000 ppm; cited from earlier work
Escherichia coli = details: 2000 ppm; cited from earlier work
[7] = system: Micrococcus pyogenes var. aureus; details: 2000 ppm; cited from earlier work
[8] = system: Fusarium oxysporum f. cucumerinum; assay: Fungicidal test by agar dilution method (colony diameter); assay type: cell-based; details: 2.5, 5 and 10 ppm

Row | SMILES | diameter of the colony ([2]; 250 ppm) [mm] | diameter of the colony ([2]; 500 ppm) [mm] | diameter of the colony ([2]; 1000 ppm) [mm] | also measured
1 | CC(C)(O)CC(=O)OCCOc1ccccc1 [compound 37] |  |  |  | Effectiveness Rating, 2000 ppm [1]: 40
2 | CC(C)=CC(=O)OCCSc1ccccc1 [compound 74] |  |  |  | Effectiveness Rating, 2000 ppm [1]: 62
3 | CCCCCCCCCCCC(=O)OCCOc1ccccc1 [compound 13] | 49 | 45 | 40 | growth / inhibition of colony compared with the control [2]: same growth as the control
4 | CCC(=O)OCCOc1ccccc1 [Compound No. 3] | 25 | 20 | 9 | Effectiveness Rating II [3]: 32
5 | CCCCC(=O)OCCOc1ccccc1 [Compound No. 6] | 31 | 26 | 22 | 
6 | CSCC(=O)OCCOc1ccccc1 [Compound No. 67, β-phenoxyethyl S-methylglycolate] |  |  |  | Effectiveness Rating [4]: 89
7 | CCCCCCC(=O)OCCOc1ccccc1 [compound 10] | 33 | 28 | 24 | 
8 | CC(=O)OCCOc1ccccc1 [Compound No. 2] | 37 | 26 |  | skin cancer [5]: not likely to cause skin cancer; LD50, acute oral toxicity (rats): 4900 mg/kg; repellency [6]: feebly repellant; Effectiveness Rating, 2000 ppm [1]: 67; Effectiveness Rating II [3]: 80
9 | CCCC(=O)OCCOc1ccccc1 [Compound No. 4] | 32 | 27 | 22 | Effectiveness Rating II [3]: 30
10 | CC(C)(C)C(=O)OCCOc1ccccc1 [compound 15] | 19 | 17 | 13 | 
11 | O=COCCOc1ccccc1 [Compound No. 1] | 40 | 30 | 10 | 
12 | CC(C)C(=O)C(=O)OCCOc1ccccc1 [Compound No. 45, β-phenoxyethyl 2-oxo-3-methyl-butanoate] |  |  |  | Effectiveness Rating, 2000 ppm [1]: 76
13 | CC(C)CC(=O)OCCOc1ccccc1 [Compound No. 8] | 24 | 19 | 15 | Effectiveness Rating II [3]: 50
14 | CCCCCCCC(=O)OCCOc1ccccc1 [compound 11] | 36 | 32 | 29 | 
15 | CCC(C)C(=O)OCCOc1ccccc1 (stereo not shown) [Compound No. 7] | 25 | 23 | 16 | 
16 | CCCCCCCCCC(=O)OCCOc1ccccc1 [compound 12] | 46 | 41 | 38 | growth / inhibition of colony compared with the control [2]: same growth as the control
17 | C=CC(=O)OCCOc1ccccc1 [Compound No. 23, β-phenoxyethylacrylate] |  |  |  | Effectiveness Rating, 2000 ppm [1]: 30
18 | CC(C)C(=O)OCCOc1ccccc1 [Compound No. 5] | 30 | 23 | 17 | bactericidal effect (genus Bacillus): non-bactericidal; bactericidal effect (Escherichia coli): non-bactericidal; bactericidal effect [7]: non-bactericidal
19 | CCCCCC(=O)OCCOc1ccccc1 [compound 9] | 33 | 30 | 22 | 
20 | CCCCNC(=O)n1c(NC(=O)OC)nc2ccccc21 [Benomyl, methyl-1-(butylcarbamonyl)-2-benzimidazolcarbamate, reference compound] |  |  |  | growth of the colony [8]: no growth of the colony was evident; Effectiveness Rating II [3]: 44
21 | CC(CC(=O)OCCOc1ccccc1)CC(C)(C)C (stereo not shown) [compound 14] | 38 | 38 | 35 | 
